In the test the test system is MV-4-11 cells. As to the kind of experiment: Gene expression microarray analysis (Affymetrix PrimeView) and GSEA. The test is classed as cell-based, human. On the set-up: RFU PODN (11730768_x_at) / Fold change /veh PODN (11730768_x_at) / RFU LINC00158 (11744669_a_at) / Fold change /veh LINC00158 (11744669_a_at) / RFU DUSP10 (11751237_a_at) / Fold change /veh DUSP10 (11751237_a_at) / RFU ID3 (11757404_x_at) / Fold change /veh ID3 (11757404_x_at) / RFU PLEKHG5 (11737974_s_at) / Fold change /veh PLEKHG5 (11737974_s_at) / RFU LRRC4B (11730491_at) / Fold change /veh LRRC4B (11730491_at) / RFU GIMAP4 (11747438_a_at) / Fold change /veh GIMAP4 (11747438_a_at) / RFU KRT8 (11758183_x_at) / Fold change /veh KRT8 (11758183_x_at) / RFU CNN1 (11734310_a_at) / Fold change /veh CNN1 (11734310_a_at) / RFU VPS37D (11726825_at) / Fold change /veh VPS37D (11726825_at) / RFU C10orf10 (11716522_x_at) / Fold change /veh C10orf10 (11716522_x_at) / RFU KIR2DL2 /// KIR2DL4 /// KIR2DL5A /// KIR2DL5B /// KIR2DS1 /// KIR2DS2 /// KIR2DS3 /// KIR2DS4 /// KIR3DL3 /// KIR3DL3 /// KIR3DS1 (11738374_at) / Fold change /veh KIR2DL2 /// KIR2DL4 /// KIR2DL5A /// KIR2DL5B /// KIR2DS1 /// KIR2DS2 /// KIR2DS3 /// KIR2DS4 /// KIR3DL3 /// KIR3DL3 /// KIR3DS1 (11738374_at) / RFU C1QL1 (11718748_at) / Fold change /veh C1QL1 (11718748_at) / RFU TMPRSS4 (11747572_a_at) / Fold change /veh TMPRSS4 (11747572_a_at) / RFU HAMP (11756126_x_at) / Fold change /veh HAMP (11756126_x_at) / RFU RNFT2 (11725882_a_at) / Fold change /veh RNFT2 (11725882_a_at) / RFU NR4A2 (11747474_a_at) / Fold change /veh NR4A2 (11747474_a_at) / RFU ABCC12 (11746883_a_at) / Fold change /veh ABCC12 (11746883_a_at) / RFU TMEM136 (11760407_x_at) / Fold change /veh TMEM136 (11760407_x_at) / RFU CLDN22 /// WWC2 (11732394_at) / Fold change /veh CLDN22 /// WWC2 (11732394_at) / RFU HLA-DPB1 (11760878_x_at) / Fold change /veh HLA-DPB1 (11760878_x_at) / RFU SPINT1 (11716480_a_at) / Fold change /veh SPINT1 (11716480_a_at) / RFU GAP43 (11754022_s_at) / Fold change /veh GAP43 (11754022_s_at) / RFU A4GNT (11735810_at) / Fold change /veh A4GNT (11735810_at) / RFU PRB3 (11715151_x_at) / Fold change /veh PRB3 (11715151_x_at) / RFU TUBB4B (11761932_at) / Fold change /veh TUBB4B (11761932_at) / RFU CAPN14 (11732068_a_at) / Fold change /veh CAPN14 (11732068_a_at) / RFU TMCC2 (11721928_a_at) / Fold change /veh TMCC2 (11721928_a_at) / RFU IRGQ (11745062_a_at) / Fold change /veh IRGQ (11745062_a_at) / RFU FAM174B (11720279_a_at) / Fold change /veh FAM174B (11720279_a_at) / RFU TMPRSS4 (11748680_a_at) / Fold change /veh TMPRSS4 (11748680_a_at) / RFU FAM212B (11763350_a_at) / Fold change /veh FAM212B (11763350_a_at) / RFU PLEKHG5 (11743358_a_at) / Fold change /veh PLEKHG5 (11743358_a_at) / RFU ZSCAN30 (11745921_a_at) / Fold change /veh ZSCAN30 (11745921_a_at) / RFU CMKLR1 (11741424_a_at) / Fold change /veh CMKLR1 (11741424_a_at) / RFU LOC101060620 /// MAPK8IP1 (11723275_at) / Fold change /veh LOC101060620 /// MAPK8IP1 (11723275_at) / RFU SPTSSB (11747773_x_at) / Fold change /veh SPTSSB (11747773_x_at) / RFU PRSS12 (11739890_at) / Fold change /veh PRSS12 (11739890_at) / RFU BIN1 (11741810_x_at) / Fold change /veh BIN1 (11741810_x_at) / RFU WNT11 (11732464_a_at) / Fold change /veh WNT11 (11732464_a_at) / RFU C10orf10 (11716521_a_at) / Fold change /veh C10orf10 (11716521_a_at) / RFU C5orf56 (11738089_at) / Fold change /veh C5orf56 (11738089_at) / RFU CYB561 (11721691_x_at) / Fold change /veh CYB561 (11721691_x_at) / RFU ANKRD19P (11752326_a_at) / Fold change /veh ANKRD19P (11752326_a_at) / RFU OR2T12 /// OR2T33 /// OR2T8 (11738714_s_at) / Fold change /veh OR2T12 /// OR2T33 /// OR2T8 (11738714_s_at) / RFU VCAN (11748164_a_at) / Fold change /veh VCAN (11748164_a_at) / RFU JSRP1 (11732532_at) / Fold change /veh JSRP1 (11732532_at) / RFU KRTAP10-11 (11738290_x_at) / Fold change /veh KRTAP10-11 (11738290_x_at) / RFU MYO3A (11730013_a_at) / Fold change /veh MYO3A (11730013_a_at) / RFU EBF3 (11725865_a_at) / Fold change /veh EBF3 (11725865_a_at) / RFU CAMK2N1 (11719241_x_at) / Fold change /veh CAMK2N1 (11719241_x_at) / RFU C5orf56 (11738088_a_at) / Fold change /veh C5orf56 (11738088_a_at) / RFU OLFML3 (11715873_a_at) / Fold change /veh OLFML3 (11715873_a_at) / RFU LOC100653217 /// NTM (11731650_a_at) / Fold change /veh LOC100653217 /// NTM (11731650_a_at) / RFU MAPK11 (11762145_a_at) / Fold change /veh MAPK11 (11762145_a_at) / RFU FIZ1 (11724087_x_at) / Fold change /veh FIZ1 (11724087_x_at) / RFU OASL (11726364_x_at) / Fold change /veh OASL (11726364_x_at) / RFU SOX15 (11748057_x_at) / Fold change /veh SOX15 (11748057_x_at) / RFU CD79A (11719716_a_at) / Fold change /veh CD79A (11719716_a_at) / RFU HIST1H1D (11736915_at) / Fold change /veh HIST1H1D (11736915_at) / RFU CASKIN2 (11723855_a_at) / Fold change /veh CASKIN2 (11723855_a_at) / RFU LOC730098 (11760151_x_at) / Fold change /veh LOC730098 (11760151_x_at) / RFU OR4N2 (11742367_at) / Fold change /veh OR4N2 (11742367_at) / RFU PRRT2 (11749266_a_at) / Fold change /veh PRRT2 (11749266_a_at) / RFU SNX32 (11753110_a_at) / Fold change /veh SNX32 (11753110_a_at) / RFU CDHR5 (11726645_a_at) / Fold change /veh CDHR5 (11726645_a_at) / RFU RCAN1 (11760418_a_at) / Fold change /veh RCAN1 (11760418_a_at) / RFU FAM167A (11723789_a_at) / Fold change /veh FAM167A (11723789_a_at) / RFU FAM26E (11764081_at) / Fold change /veh FAM26E (11764081_at) / RFU ISYNA1 (11749810_s_at) / Fold change /veh ISYNA1 (11749810_s_at) / RFU ACY1 (11761880_at) / Fold change /veh ACY1 (11761880_at) / RFU 11764098_at / Fold change /veh 11764098_at / RFU SAMD14 (11745864_x_at) / Fold change /veh SAMD14 (11745864_x_at) / RFU NPB (11741838_a_at) / Fold change /veh NPB (11741838_a_at) / RFU TMPRSS6 (11731388_a_at) / Fold change /veh TMPRSS6 (11731388_a_at) / RFU KRTAP10-2 (11738614_at) / Fold change /veh KRTAP10-2 (11738614_at) / RFU ARHGAP8 /// PRR5-ARHGAP8 (11727945_x_at) / Fold change /veh ARHGAP8 /// PRR5-ARHGAP8 (11727945_x_at) / RFU KRTAP5-7 /// NADSYN1 (11734609_at) / Fold change /veh KRTAP5-7 /// NADSYN1 (11734609_at) / RFU RASL12 (11751679_a_at) / Fold change /veh RASL12 (11751679_a_at) / RFU CDKN2B (11736163_a_at) / Fold change /veh CDKN2B (11736163_a_at) / RFU PRF1 (11729649_at) / Fold change /veh PRF1 (11729649_at) / RFU, ZNF638 /// ZNF638-IT1 / Fold change vs veh, ZNF638 /// ZNF638-IT1 / RFU, PANK3 / Fold change vs veh, PANK3 / RFU, SH3YL1 / Fold change vs veh, SH3YL1 / RFU, ZEB2 / Fold change vs veh, ZEB2 / RFU, NRIP1 / Fold change vs veh, NRIP1 / RFU, PTTG1IP / Fold change vs veh, PTTG1IP / RFU, CAPN2 / Fold change vs veh, CAPN2 / RFU, MED14 / Fold change vs veh, MED14 / RFU, SNORA58 / Fold change vs veh, SNORA58 / RFU, C1orf63 / Fold change vs veh, C1orf63 / RFU, LRRFIP1 / Fold change vs veh, LRRFIP1 / RFU, NDUFAF7 / Fold change vs veh, NDUFAF7 / RFU, SLC12A2 / Fold change vs veh, SLC12A2 / RFU, IBTK / Fold change vs veh, IBTK / RFU, ESF1 / Fold change vs veh, ESF1 / Fold change vs veh, TMEM50B / RFU, TAOK1 / Fold change vs veh, TAOK1 / RFU, ACBD3 / Fold change vs veh, ACBD3 / RFU, TMA16 / Fold change vs veh, TMA16 / RFU, RWDD3 / Fold change vs veh, RWDD3 / RFU, BCAT1 / Fold change vs veh, BCAT1 / RFU, EDEM3 / Fold change vs veh, EDEM3 / RFU, TMEM33 / Fold change vs veh, TMEM33 / RFU, WDR75 / Fold change vs veh, WDR75 / RFU, AHCTF1 / Fold change vs veh, AHCTF1 / RFU, TFRC / Fold change vs veh, TFRC / RFU, ZDHHC17 / Fold change vs veh, ZDHHC17 / RFU, NOM1 / Fold change vs veh, NOM1 / RFU, ARL8B / Fold change vs veh, ARL8B / RFU, ZBTB11 / Fold change vs veh, ZBTB11 / RFU, TAMM41 / Fold change vs veh, TAMM41 / RFU, KIAA1704 /// LOC100996395 / Fold change vs veh, KIAA1704 /// LOC100996395 / RFU, ING1 / Fold change vs veh, ING1 / RFU, TRMT61B / Fold change vs veh, TRMT61B / RFU, FUBP3 / Fold change vs veh, FUBP3 / RFU, TP53 / Fold change vs veh, TP53 / RFU, TNKS2 / Fold change vs veh, TNKS2 / RFU, ZFP14 / Fold change vs veh, ZFP14 / RFU, ACTR2 / Fold change vs veh, ACTR2 / RFU, PPP3R1 / Fold change vs veh, PPP3R1 / RFU, PIK3R1 / Fold change vs veh, PIK3R1 / RFU, HNRNPA1 / Fold change vs veh, HNRNPA1 / RFU, RNF170 / Fold change vs veh, RNF170 / RFU, ZNF28 / Fold change vs veh, ZNF28 / RFU, RNGTT / Fold change vs veh, RNGTT / RFU, OGT / Fold change vs veh, OGT / RFU, BRD1 / Fold change vs veh, BRD1 / RFU, MARS / Fold change vs veh, MARS / RFU, ZNF655 / Fold change vs veh, ZNF655 / RFU, FAHD1 / Fold change vs veh, FAHD1 / RFU, BDP1 / Fold change vs veh, BDP1 / RFU, LRRCC1 / Fold change vs veh, LRRCC1 / RFU, ARID1A / Fold change vs veh, ARID1A / RFU, ZNF146 / Fold change vs veh, ZNF146 / RFU, ZNF330 / Fold change vs veh, ZNF330 / RFU, GPN3 / Fold change vs veh, GPN3 / RFU, C9orf123 / Fold change vs veh, C9orf123 / RFU, N4BP2L2 / Fold change vs veh, N4BP2L2 / RFU, ARFIP1 / Fold change vs veh, ARFIP1 / RFU, FAM179B / Fold change vs veh, FAM179B / RFU, BCL10 / Fold change vs veh, BCL10 / RFU, UHRF1BP1L / Fold change vs veh, UHRF1BP1L / RFU, BET1 / Fold change vs veh, BET1 / RFU, CNOT2 / Fold change vs veh, CNOT2 / RFU, ZNF268 / Fold change vs veh, ZNF268 / Fold change vs veh, ZNF507 / RFU, DGCR2 / Fold change vs veh, DGCR2 / RFU, WDSUB1 / Fold change vs veh, WDSUB1 / Fold change vs veh, HSP90B1 /// MIR3652 / RFU, ADSS / Fold change vs veh, ADSS / RFU, GK / Fold change vs veh, GK / RFU, ZNF148 / Fold change vs veh, ZNF148 / RFU, TAF9 / Fold change vs veh, TAF9 / RFU, SLC1A5 / Fold change vs veh, SLC1A5 / RFU, SLMO2 / Fold change vs veh, SLMO2 / RFU, ABCC4 / Fold change vs veh, ABCC4 / RFU, LOC101060439 /// RAP1B / Fold change vs veh, LOC101060439 /// RAP1B / RFU, RFX7 / Fold change vs veh, RFX7 / RFU, GTPBP10 / Fold change vs veh, GTPBP10 / RFU, CNEP1R1 / Fold change vs veh, CNEP1R1 / RFU, BIVM-ERCC5 /// ERCC5 / Fold change vs veh, BIVM-ERCC5 /// ERCC5 / RFU, ILF3 / Fold change vs veh, ILF3 / RFU 11762660_at / Fold change /veh 11762660_at / RFU VCAN (11757783_s_at) / Fold change /veh VCAN (11757783_s_at) / RFU DDX43 (11728927_at) / Fold change /veh DDX43 (11728927_at) / RFU KRT8 (11758188_x_at) / Fold change /veh KRT8 (11758188_x_at) / RFU NKD1 (11759106_at) / Fold change /veh NKD1 (11759106_at) / RFU SRD5A1 (11742802_a_at) / Fold change /veh SRD5A1 (11742802_a_at) / RFU TPSAB1 /// TPSB2 (11721975_s_at) / Fold change /veh TPSAB1 /// TPSB2 (11721975_s_at) / RFU GSTM3 (11746129_a_at) / Fold change /veh GSTM3 (11746129_a_at) / RFU IL23R (11737362_x_at) / Fold change /veh IL23R (11737362_x_at) / RFU TMEM51 (11727254_a_at) / Fold change /veh TMEM51 (11727254_a_at) / RFU PIWIL2 (11732686_x_at) / Fold change /veh PIWIL2 (11732686_x_at) / RFU ORM1 (11744905_x_at) / Fold change /veh ORM1 (11744905_x_at) / RFU CCDC152 (11743942_at) / Fold change /veh CCDC152 (11743942_at) / RFU ECM1 (11717891_a_at) / Fold change /veh ECM1 (11717891_a_at) / RFU IL23R (11748794_a_at) / Fold change /veh IL23R (11748794_a_at) / RFU TNFAIP8L3 (11732012_x_at) / Fold change /veh TNFAIP8L3 (11732012_x_at) / RFU MBOAT4 (11741988_at) / Fold change /veh MBOAT4 (11741988_at) / RFU 11764193_at / Fold change /veh 11764193_at / RFU TMEM53 (11763286_at) / Fold change /veh TMEM53 (11763286_at) / RFU MAGEB2 (11727129_at) / Fold change /veh MAGEB2 (11727129_at) / RFU TMEM200A (11744735_a_at) / Fold change /veh TMEM200A (11744735_a_at) / RFU CCDC152 (11751479_a_at) / Fold change /veh CCDC152 (11751479_a_at) / RFU FAM211A (11726209_a_at) / Fold change /veh FAM211A (11726209_a_at) / RFU RGS16 (11746705_a_at) / Fold change /veh RGS16 (11746705_a_at) / RFU VCAN (11755009_s_at) / Fold change /veh VCAN (11755009_s_at) / RFU RHOB (11743442_s_at) / Fold change /veh RHOB (11743442_s_at) / RFU RGS16 (11720943_a_at) / Fold change /veh RGS16 (11720943_a_at) / RFU RGS16 (11720944_at) / Fold change /veh RGS16 (11720944_at) / RFU, VPS4B / Fold change vs veh, VPS4B / RFU, CREB1 / Fold change vs veh, CREB1 / RFU, DNAJC13 / Fold change vs veh, DNAJC13 / RFU, GNAQ / Fold change vs veh, GNAQ / RFU, CDK5R1 / Fold change vs veh, CDK5R1 / RFU, ZRANB3 / Fold change vs veh, ZRANB3 / RFU, CUL4A / Fold change vs veh, CUL4A / RFU, CCNY / Fold change vs veh, CCNY / RFU, UFL1 / Fold change vs veh, UFL1 / RFU, COG3 / Fold change vs veh, COG3 / RFU, DIAPH2 / Fold change vs veh, DIAPH2 / RFU, SKA2 / Fold change vs veh, SKA2 / RFU, AFF3 / Fold change vs veh, AFF3 / RFU, LMF1 / Fold change vs veh, LMF1 / RFU, IPO11 / Fold change vs veh, IPO11 / RFU, DFFB / Fold change vs veh, DFFB / RFU, FOXP1 / Fold change vs veh, FOXP1 / RFU, CARD8 / Fold change vs veh, CARD8 / RFU, STRN3 / Fold change vs veh, STRN3 / RFU, ADK / Fold change vs veh, ADK / RFU, RASSF2 / Fold change vs veh, RASSF2 / RFU, WIPF1 / Fold change vs veh, WIPF1 / RFU, LARP1B / Fold change vs veh, LARP1B / RFU, RASA1 / Fold change vs veh, RASA1 / RFU, RB1 / Fold change vs veh, RB1 / RFU, PPFIA1 / Fold change vs veh, PPFIA1 / RFU, MAT2A / Fold change vs veh, MAT2A / RFU, CCT5 / Fold change vs veh, CCT5 / RFU, WDR92 / Fold change vs veh, WDR92 / RFU, CUX1 / Fold change vs veh, CUX1 / RFU, TTC7A / Fold change vs veh, TTC7A / RFU, TMEM135 / Fold change vs veh, TMEM135 / RFU, DEPTOR / Fold change vs veh, DEPTOR / RFU, CPM / Fold change vs veh, CPM / RFU, DNAJB6 / Fold change vs veh, DNAJB6 / RFU, CACNA2D3 / Fold change vs veh, CACNA2D3 / RFU, DTX4 / Fold change vs veh, DTX4 / RFU, TFCP2 / Fold change vs veh, TFCP2 / RFU, GMCL1 /// GMCL1P1 / Fold change vs veh, GMCL1 /// GMCL1P1 / RFU, AEBP2 / Fold change vs veh, AEBP2 / RFU, SNHG1 /// SNORD22 /// SNORD25 /// SNORD26 /// SNORD27 /// SNORD28 /// SNORD29 /// SNORD31 / Fold change vs veh, SNHG1 /// SNORD22 /// SNORD25 /// SNORD26 /// SNORD27 /// SNORD28 /// SNORD29 /// SNORD31 / Fold change (Aza/veh), C12orf56 (ProbeSet 11735607_a_at) / Fold change (ACY-1035/veh), C12orf56 (ProbeSet 11735607_a_at) / Fold change (Aza/veh), FGFR1OP (ProbeSet 11751329_s_at) / Fold change (ACY-1035/veh), FGFR1OP (ProbeSet 11751329_s_at) / Fold change (Aza/veh), VPS36 (ProbeSet 11739960_a_at) / Fold change (ACY-1035/veh), VPS36 (ProbeSet 11739960_a_at) / RFU SYPL1 (11715823_x_at) / Fold change /veh SYPL1 (11715823_x_at) / RFU IGFBP7 (11715501_s_at) / Fold change /veh IGFBP7 (11715501_s_at) / RFU REEP3 (11722064_at) / Fold change /veh REEP3 (11722064_at) / RFU IGLL1 (11728026_x_at) / Fold change /veh IGLL1 (11728026_x_at): dose or concentration left out as unconfirmed. The following applies: ProbeSet 11728314_at; LIST B.

Regarding `Nc1ncn([C@@H]2O[C@H](CO)[C@@H](O)[C@H]2O)c(=O)n1` [azacitidine], the “RFU, ZNF148” value was found to be 202.48 RFU.

The values above are taken from PMC5218480 (PLoS ONE, 2017).
